# Data reported in US9132140B2, “Boronic acid derivatives and therapeutic uses thereof” (Rempex Pharmaceuticals, Inc., priority 2013, dated 2015).
# Like-named read-outs stand apart in the source and are kept apart here.
# How the values were obtained:
# [1] = test system: KP1081 (NDM-1, TEM-1, SHV-11, CMY-6, CTX-M-15); format: cell-based, Klebsiella pneumoniae; conditions: KP1081; alone
# From the text: (§1) The results are present in Table 6.
# (§2) The results are present in Table 7.
# [2] = test system: KP1087 (KPC-2, CTX-M-15, SHV-11, TEM-1); format: cell-based, Klebsiella pneumoniae; conditions: KP1087; alone
# From the text: as §1, §2
# [3] = test system: KPM1110 (NDM, KPC); format: cell-based, Klebsiella pneumoniae; conditions: KPM1110; alone
# From the text: (§3) Several strains simultaneously expressing both class A and class B carbapenemases, which were constructed using conjugation, were also included in the panel.
# [4] = test system: KPM1111 (NDM, KPC); format: cell-based, Klebsiella pneumoniae; conditions: KPM1111; alone
# From the text: as §3
# [5] = test system: KPM1123 (KPC-2 TEM SHV); format: cell-based, Klebsiella pneumoniae; conditions: KPM1123; alone
# From the text: as §3
# [6] = test system: KPM1109 (NDM, KPC); format: cell-based, Klebsiella pneumoniae; conditions: KPM1109; alone
# From the text: as §3
# [7] = test system: KPM1107 (NDM, KPC); format: cell-based, Klebsiella pneumoniae; conditions: KPM1107; alone
# From the text: as §3
# [8] = test system: KPM1099 (NDM, KPC); format: cell-based, Klebsiella pneumoniae; conditions: KPM1099; alone
# From the text: as §3
# [9] = test system: KP1064 (KPC TEM SHV); format: cell-based, Klebsiella pneumoniae; conditions: KP1064; alone
# From the text: as §3
# [10] = test system: KPM1108 (NDM, KPC); format: cell-based, Klebsiella pneumoniae; conditions: KPM1108; alone
# From the text: as §3
# [11] = test system: KPM1346 (NDM-1 TEM SHV CTX-M-15 CMY); format: cell-based, Klebsiella pneumoniae; conditions: KPM1346; alone
# From the text: as §3
# [12] = test system: KP1014 (Vim-1, TEM, SHV); format: cell-based, Klebsiella pneumoniae; conditions: KP1014; alone
# From the text: as §3
# [13] = test system: KP1059 (VIM-1, SHV-11); format: cell-based, Klebsiella pneumoniae; conditions: KP1059; alone
# From the text: as §3
# [14] = test system: KP1004 (KPC TEM SHV); format: cell-based, Klebsiella pneumoniae; conditions: KP1004; alone
# From the text: as §3
# [15] = test system: KPM1345 (VIM-1 SHV); format: cell-based, Klebsiella pneumoniae; conditions: KPM1345; alone
# From the text: as §3
# [16] = test system: KPM1344 (VIM-1); format: cell-based, Klebsiella pneumoniae; conditions: KPM1344; alone
# From the text: as §3
# [17] = test system: KP1098 (IMP-26 TEM SHV); format: cell-based, Klebsiella pneumoniae; conditions: KP1098; alone
# From the text: as §3
# [18] = test system: KPM1122 (NDM, VIM); format: cell-based, Klebsiella pneumoniae; conditions: KPM1122; alone
# From the text: as §3
# [19] = test system: KP1065 (VIM-1, SHV-11); format: cell-based, Klebsiella pneumoniae; conditions: KP1065; alone
# From the text: as §3
# [20] = test system: KPM1347 (NDM-1 SHV CTX-M-15); format: cell-based, Klebsiella pneumoniae; conditions: KPM1347; alone
# From the text: as §3
# [21] = test system: KP1081 (NDM-1, TEM-1, SHV-11, CMY-6, CTX-M-15); format: cell-based, Klebsiella pneumoniae; conditions: KP1081; alone; remark: listed apart in the source
# From the text: as §3
# [22] = test system: KPM1097 (NDM, KPC); format: cell-based, Klebsiella pneumoniae; conditions: KPM1097; alone
# From the text: as §3
# [23] = test system: KP1070 (KPC TEM SHV); format: cell-based, Klebsiella pneumoniae; conditions: KP1070; alone
# From the text: as §3
# [24] = test system: KP1061 (KPC TEM SHV); format: cell-based, Klebsiella pneumoniae; conditions: KP1061; alone
# From the text: as §3
# [25] = test system: KP1054 (VIM-1, SHV-11); format: cell-based, Klebsiella pneumoniae; conditions: KP1054; alone
# From the text: as §3
# [26] = test system: KP1084 (KPC-3, SHV-11, TEM-1); format: cell-based, Klebsiella pneumoniae; conditions: KP1084; alone
# From the text: as §3
# [27] = test system: KP1097 (IMP-1 SHV); format: cell-based, Klebsiella pneumoniae; conditions: KP1097; alone
# From the text: as §3
# [28] = test system: EC1068 (VIM-1); format: cell-based, Escherichia coli; conditions: EC1068; alone
# From the text: as §3
# [29] = test system: EC1061 (NDM-1, CMY-6); format: cell-based, Escherichia coli; conditions: EC1061; alone
# From the text: as §3
# [30] = test system: EC1064 (NDM-1, CMY-6, CTX-M-15); format: cell-based, Escherichia coli; conditions: EC1064; alone
# From the text: as §3
# [31] = test system: EC1065 (IMP-1 CMY-2); format: cell-based, Escherichia coli; conditions: EC1065; alone
# From the text: as §3
# [32] = test system: ECLM1016 (NDM, KPC); format: cell-based, Enterobacter cloacae; conditions: ECLM1016; alone
# From the text: as §3
# [33] = test system: ECL1055 (KPC); format: cell-based, Enterobacter cloacae; conditions: ECL1055; alone
# From the text: as §3
# [34] = test system: ECLM1017 (VIM, KPC); format: cell-based, Enterobacter cloacae; conditions: ECLM1017; alone
# From the text: as §3
# [35] = test system: ECLM1019 (VIM, KPC); format: cell-based, Enterobacter cloacae; conditions: ECLM1019; alone
# From the text: as §3
# [36] = test system: ECLM1013 (NDM, KPC); format: cell-based, Enterobacter cloacae; conditions: ECLM1013; alone
# From the text: as §3
# [37] = test system: ECL1036 (KPC); format: cell-based, Enterobacter cloacae; conditions: ECL1036; alone
# From the text: as §3
# [38] = test system: ECLM1014 (NDM, KPC); format: cell-based, Enterobacter cloacae; conditions: ECLM1014; alone
# From the text: as §3
# [39] = test system: ECLM1018 (VIM, KPC); format: cell-based, Enterobacter cloacae; conditions: ECLM1018; alone
# From the text: as §3
# [40] = test system: ECL1057 (NDM-1, TEM-1, CTX-M-15); format: cell-based, Enterobacter cloacae; conditions: ECL1057; alone
# From the text: as §3
# [41] = test system: ECL1026 (KPC); format: cell-based, Enterobacter cloacae; conditions: ECL1026; alone
# From the text: as §3
# [42] = test system: ECLM1015 (NDM, KPC); format: cell-based, Enterobacter cloacae; conditions: ECLM1015; alone
# From the text: as §3
# [43] = test system: ECL1082 (VIM-1); format: cell-based, Enterobacter cloacae; conditions: ECL1082; alone
# From the text: as §3
# [44] = test system: ECL1045 (VIM-1); format: cell-based, Enterobacter cloacae; conditions: ECL1045; alone
# From the text: as §3
# [45] = test system: EA1019 (SHV-5, VIM-1); format: cell-based, Enterobacter aerogenes; conditions: EA1019; alone
# From the text: as §3
compound,measurement,setting,value
"C[C@@H](O)[C@H]1C(=O)N2C(C(=O)O)=C(S[C@@H]3CN[C@H](C(=O)N(C)C)C3)[C@H](C)[C@H]12 [Meropenem, reference compound]",Carbapenem MIC alone,[1],Z (MIC of greater than 10 μg/mL)
same,Carbapenem MIC alone,[2],Z (MIC of greater than 10 μg/mL)
same,Carbapenem MIC alone,[3],Z (MIC of greater than 10 μg/mL)
same,Carbapenem MIC alone,[4],Z (MIC of greater than 10 μg/mL)
same,Carbapenem MIC alone,[5],Z (MIC of greater than 10 μg/mL)
same,Carbapenem MIC alone,[6],Z (MIC of greater than 10 μg/mL)
same,Carbapenem MIC alone,[7],Z (MIC of greater than 10 μg/mL)
same,Carbapenem MIC alone,[8],Z (MIC of greater than 10 μg/mL)
same,Carbapenem MIC alone,[9],Z (MIC of greater than 10 μg/mL)
same,Carbapenem MIC alone,[10],Z (MIC of greater than 10 μg/mL)
same,Carbapenem MIC alone,[11],Z (MIC of greater than 10 μg/mL)
same,Carbapenem MIC alone,[12],Z (MIC of greater than 10 μg/mL)
same,Carbapenem MIC alone,[13],Z (MIC of greater than 10 μg/mL)
same,Carbapenem MIC alone,[14],Z (MIC of greater than 10 μg/mL)
same,Carbapenem MIC alone,[15],Y (MIC of 1 μg/mL to 10 μg/mL)
same,Carbapenem MIC alone,[16],Z (MIC of greater than 10 μg/mL)
same,Carbapenem MIC alone,[17],Z (MIC of greater than 10 μg/mL)
same,Carbapenem MIC alone,[18],Z (MIC of greater than 10 μg/mL)
same,Carbapenem MIC alone,[19],Y (MIC of 1 μg/mL to 10 μg/mL)
same,Carbapenem MIC alone,[20],Z (MIC of greater than 10 μg/mL)
same,Carbapenem MIC alone,[21],Z (MIC of greater than 10 μg/mL)
same,Carbapenem MIC alone,[22],Z (MIC of greater than 10 μg/mL)
same,Carbapenem MIC alone,[23],Z (MIC of greater than 10 μg/mL)
same,Carbapenem MIC alone,[24],Y (MIC of 1 μg/mL to 10 μg/mL)
same,Carbapenem MIC alone,[25],Z (MIC of greater than 10 μg/mL)
same,Carbapenem MIC alone,[26],Z (MIC of greater than 10 μg/mL)
same,Carbapenem MIC alone,[27],Z (MIC of greater than 10 μg/mL)
same,Carbapenem MIC alone,[28],Z (MIC of greater than 10 μg/mL)
same,Carbapenem MIC alone,[29],Z (MIC of greater than 10 μg/mL)
same,Carbapenem MIC alone,[30],Z (MIC of greater than 10 μg/mL)
same,Carbapenem MIC alone,[31],Y (MIC of 1 μg/mL to 10 μg/mL)
same,Carbapenem MIC alone,[32],Z (MIC of greater than 10 μg/mL)
same,Carbapenem MIC alone,[33],Y (MIC of 1 μg/mL to 10 μg/mL)
same,Carbapenem MIC alone,[34],Z (MIC of greater than 10 μg/mL)
same,Carbapenem MIC alone,[35],Z (MIC of greater than 10 μg/mL)
same,Carbapenem MIC alone,[36],Z (MIC of greater than 10 μg/mL)
same,Carbapenem MIC alone,[37],Y (MIC of 1 μg/mL to 10 μg/mL)
same,Carbapenem MIC alone,[38],Z (MIC of greater than 10 μg/mL)
same,Carbapenem MIC alone,[39],Z (MIC of greater than 10 μg/mL)
same,Carbapenem MIC alone,[40],Z (MIC of greater than 10 μg/mL)
same,Carbapenem MIC alone,[41],Y (MIC of 1 μg/mL to 10 μg/mL)
same,Carbapenem MIC alone,[42],Z (MIC of greater than 10 μg/mL)
same,Carbapenem MIC alone,[43],Y (MIC of 1 μg/mL to 10 μg/mL)
same,Carbapenem MIC alone,[44],Y (MIC of 1 μg/mL to 10 μg/mL)
same,Carbapenem MIC alone,[45],Z (MIC of greater than 10 μg/mL)
